Test results published in US9200017B2, “Multimodal imaging of fibrin” (The General Hospital Corporation, priority 2009, dated 2015).

Legend:
Thrombus [1] = target: T1, Thrombus (Rattus norvegicus, UniProt P02680+P06399+P14480); type: in vivo; details: ex vivo, 2 h post-injection
T1 construct: thrombin cleaves fibrinopeptides on fibrinogen resulting in an end-to-end polymerization to give the polymer fibrin; A day old autologous blood clot was injected into the right internal carotid artery; from tissue; host or cells: autologous blood clot in the right internal carotid artery of Wistar rats
T1 sequence (P06399 37-550 isoform P06399-2 limits assumed): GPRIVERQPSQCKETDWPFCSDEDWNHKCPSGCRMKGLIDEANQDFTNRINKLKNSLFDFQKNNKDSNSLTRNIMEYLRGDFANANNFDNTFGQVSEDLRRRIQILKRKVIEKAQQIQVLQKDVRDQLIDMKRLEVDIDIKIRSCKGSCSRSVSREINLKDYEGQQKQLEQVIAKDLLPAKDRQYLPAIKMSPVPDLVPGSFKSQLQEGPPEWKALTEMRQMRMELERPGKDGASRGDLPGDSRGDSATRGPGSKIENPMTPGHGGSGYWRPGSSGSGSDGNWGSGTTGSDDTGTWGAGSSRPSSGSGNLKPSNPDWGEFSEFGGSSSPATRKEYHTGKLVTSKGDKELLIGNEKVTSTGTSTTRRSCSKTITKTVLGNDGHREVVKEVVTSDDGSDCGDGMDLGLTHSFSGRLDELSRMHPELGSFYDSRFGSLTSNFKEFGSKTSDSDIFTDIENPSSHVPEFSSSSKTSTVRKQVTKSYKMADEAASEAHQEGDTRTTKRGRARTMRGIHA
T1 sequence (P14480 33-479 limits assumed): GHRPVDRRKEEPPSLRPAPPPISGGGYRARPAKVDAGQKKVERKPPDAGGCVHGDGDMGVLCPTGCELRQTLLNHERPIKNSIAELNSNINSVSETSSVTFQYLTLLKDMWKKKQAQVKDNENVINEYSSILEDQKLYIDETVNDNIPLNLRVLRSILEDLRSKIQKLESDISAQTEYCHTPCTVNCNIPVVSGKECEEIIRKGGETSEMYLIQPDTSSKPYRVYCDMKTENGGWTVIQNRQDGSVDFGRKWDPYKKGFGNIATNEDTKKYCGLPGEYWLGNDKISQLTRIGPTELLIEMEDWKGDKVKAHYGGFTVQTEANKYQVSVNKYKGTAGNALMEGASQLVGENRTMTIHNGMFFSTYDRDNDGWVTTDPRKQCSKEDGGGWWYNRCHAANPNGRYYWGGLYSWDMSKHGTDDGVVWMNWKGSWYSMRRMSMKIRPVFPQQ
T1 sequence (P02680 26-437 isoform P02680-2 limits assumed): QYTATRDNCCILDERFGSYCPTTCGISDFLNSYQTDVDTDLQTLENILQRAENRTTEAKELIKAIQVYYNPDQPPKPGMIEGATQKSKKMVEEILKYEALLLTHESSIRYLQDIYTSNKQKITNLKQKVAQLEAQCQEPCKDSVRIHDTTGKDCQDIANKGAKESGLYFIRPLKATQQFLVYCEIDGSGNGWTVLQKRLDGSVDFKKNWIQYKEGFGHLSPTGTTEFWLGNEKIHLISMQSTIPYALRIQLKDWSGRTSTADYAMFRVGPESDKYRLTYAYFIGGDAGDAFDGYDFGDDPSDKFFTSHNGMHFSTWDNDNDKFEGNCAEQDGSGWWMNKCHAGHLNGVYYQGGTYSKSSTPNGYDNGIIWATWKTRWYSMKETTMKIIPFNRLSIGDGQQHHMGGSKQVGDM
Method: All animal studies were approved by the Subcommittee on Research Animal Care at Massachusetts General Hospital. The occlusive thrombus model was described previously (Zhang R L, Chopp M, Zhang Z G, Jiang Q, and Ewing J R., Brain Res. 1997 766(1-2):83-92). Briefly, male Wistar rats (350-400 g, n=8; Charles River Laboratories, Wilmington, Mass.) were anaesthetized with isoflurane (1-2% in 70% N2O and 30% O2) and body temperature was kept at 37.5° C. A day old autologous blood clot was injected into the right internal carotid artery (ICA) at the level of the middle cerebral artery (MCA). The femoral vein was cannulated for intravenous delivery of the contrast agent. […]
The ipsilateral (containing the thrombus) and contralateral ICA and MCA, cerebral hemispheres, blood, urine, intraabdominal organs, rectus femoris muscle and femur bone were collected from all the animals, weighed and radioactivity measured on a gamma counter. The percent of the injected dose per gram of tissue (% ID/g) was calculated by dividing the counts of ^64Cu/g of tissue by the total counts of the injected dose, based on an aliquot of the injected dose, with correction for radioactive decay. Tissues were later homogenized in nitric acid and analyzed for Gd concentration by inductively coupled plasma-mass spectrometry (ICP-MS).

Thrombus [2] = test: MR-PET imaging in a rabbit model of occlusive arterial thrombus; type: in vivo; details: i.v., MR angiogram with gadofosveset
Method: The occlusive thrombus model was similar to the one described above. Briefly, a male New Zealand white rabbit (2.5 kg) was sedated with a mixture of ketamine and xylazine and anaesthetized with isoflurane (1-2% in 70% N2O and 30% O2) and body temperature was kept at 37.5° C. A day old autologous blood clot was injected into the right internal carotid artery (ICA). The femoral vein was cannulated for intravenous delivery of the imaging agents. Simultaneous PET and MR were acquired on a clinical 3T MRI-BrainPET scanner using a home-built receive surface coil and a CP transmit coil. After baseline MR scans were acquired, the compound 21 was administered at a dose of […]. The blood pool MR contrast agent gadofosveset was injected at a dose of 0.1 mmol Gd/kg to acquire an angiographic image.

Gd3-EP-2104R-Cu [Compound 21]
Concentration of 64Cu in thrombus relative to contralateral vessel, blood plasma, brain, or muscle (Thrombus [1]; p<0.005): at least 4 fold | Gd concentration in thrombus relative to contralateral vessel, blood plasma, brain, or muscle (Thrombus [1]; ICP-MS, p<0.0001): over 6 fold | PET signal at occluded right internal carotid artery (Thrombus [2]): hyperintense PET signal in the right internal carotid (ICA)
